The record followed here is patent US20140135310A1, “SULPHONAMIDE DERIVATIVES OF ALICYCLIC AMINES FOR THE TREATMENT OF CENTRAL NERVOUS SYSTEM DISEASES” (Adamed Sp. z o.o., priority 2011, published 2014).

In experiment [1] the target is dopaminergic receptors D3 (Homo sapiens, UniProt P35462). The experiment in a line: Radioligand binding assay, dopaminergic D3 receptors. As to conditions: test compound 1×10^−6 M. The method in brief: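 Competition radioligand binding at human D2, D3 and D4.4 receptors, detected by scintillation counting; nonspecific binding defined with excess unlabelled ligand. Results as percent inhibition of control specific binding; IC50 by Hill-equation nonlinear regression; Ki via Cheng-Prusoff, with radioligand KD from Scatchard plot.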
Sequence of dopaminergic receptors D3 (P35462 whole entry): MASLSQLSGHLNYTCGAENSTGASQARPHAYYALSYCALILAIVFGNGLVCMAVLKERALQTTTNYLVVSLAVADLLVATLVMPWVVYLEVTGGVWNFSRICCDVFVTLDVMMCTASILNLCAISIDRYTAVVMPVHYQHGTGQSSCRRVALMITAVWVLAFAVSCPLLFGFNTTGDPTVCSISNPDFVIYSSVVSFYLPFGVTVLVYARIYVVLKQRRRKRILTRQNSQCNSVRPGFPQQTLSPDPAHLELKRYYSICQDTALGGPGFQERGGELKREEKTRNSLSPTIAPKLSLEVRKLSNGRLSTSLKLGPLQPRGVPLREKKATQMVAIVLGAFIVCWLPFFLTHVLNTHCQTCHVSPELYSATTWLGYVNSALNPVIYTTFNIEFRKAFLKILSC

Experiment [2] deals with T1, 5-HT2A receptor (Homo sapiens, UniProt P28223).
T1 construct: purchased PerkinElmer
T1 sequence (P28223 whole entry): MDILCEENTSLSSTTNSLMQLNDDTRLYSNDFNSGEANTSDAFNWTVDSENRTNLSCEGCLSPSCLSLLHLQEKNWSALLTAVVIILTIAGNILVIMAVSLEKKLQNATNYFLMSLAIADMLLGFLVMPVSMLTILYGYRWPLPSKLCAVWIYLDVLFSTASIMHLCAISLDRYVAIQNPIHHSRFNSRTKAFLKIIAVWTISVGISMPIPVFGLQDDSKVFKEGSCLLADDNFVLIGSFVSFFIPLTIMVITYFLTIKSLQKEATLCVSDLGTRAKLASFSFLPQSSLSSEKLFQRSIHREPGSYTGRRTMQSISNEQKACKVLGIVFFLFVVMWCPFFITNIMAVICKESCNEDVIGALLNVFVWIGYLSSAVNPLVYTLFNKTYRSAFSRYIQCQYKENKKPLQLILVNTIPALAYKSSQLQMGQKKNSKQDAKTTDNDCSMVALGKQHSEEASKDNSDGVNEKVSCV
The experiment in a line: Radioligand binding assay, serotoninergic 5-HT2A receptors. Particulars: binding assay result in %, Table 5a. In short, it runs like this: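 Radioligand competition binding with scintillation counting; nonspecific binding defined by excess unlabelled ligand. Data as percent inhibition of control specific binding. IC50 by Hill-equation fit of competition curves; Ki by Cheng-Prusoff, with radioligand Kd from Scatchard plot.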

Experiment [3] has as its target T2, 5-HT7 receptor (Homo sapiens, UniProt P34969).
T2 construct: purchased PerkinElmer
Kind of experiment: Radioligand binding assay, serotoninergic 5-HT7 receptors.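 Further: test compound at 1 µM.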 Particulars: binding assay result in %, Table 5a. The method in brief: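 Competition binding at human 5-HT7 receptors with a radioligand, detected by scintillation counting; non-specific binding was defined with excess unlabelled ligand. IC50 came from Hill-equation fits of competition curves, and Ki from Cheng–Prusoff using radioligand concentration and Scatchard-derived KD.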

Experiment [4] deals with T3, serotonin transporter (SERT) (Homo sapiens, UniProt P31645).
T3 construct: expressed in transfected cells; host or cells: CHO cells
T3 sequence (P31645 whole entry): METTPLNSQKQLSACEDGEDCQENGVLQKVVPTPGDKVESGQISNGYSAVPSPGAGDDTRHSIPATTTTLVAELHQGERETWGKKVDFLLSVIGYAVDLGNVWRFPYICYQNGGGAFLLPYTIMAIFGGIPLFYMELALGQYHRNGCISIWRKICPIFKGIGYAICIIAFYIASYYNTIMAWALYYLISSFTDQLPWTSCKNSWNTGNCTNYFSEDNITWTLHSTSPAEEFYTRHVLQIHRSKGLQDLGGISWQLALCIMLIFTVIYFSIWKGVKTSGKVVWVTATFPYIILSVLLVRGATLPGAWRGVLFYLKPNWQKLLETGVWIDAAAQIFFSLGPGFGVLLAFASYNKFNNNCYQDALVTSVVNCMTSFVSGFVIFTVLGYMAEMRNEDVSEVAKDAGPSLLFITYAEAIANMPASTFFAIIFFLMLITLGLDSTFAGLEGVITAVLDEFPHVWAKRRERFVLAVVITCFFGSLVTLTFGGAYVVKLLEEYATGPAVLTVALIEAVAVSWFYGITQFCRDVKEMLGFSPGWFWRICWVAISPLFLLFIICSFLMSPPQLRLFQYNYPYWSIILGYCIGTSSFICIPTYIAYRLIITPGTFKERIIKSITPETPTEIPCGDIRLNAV
Kind of experiment: Radioligand binding assay, serotonin transporter (SERT). Particulars: binding assay, test compound 1×10^−6 M. In short, it runs like this: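 Radioligand competition binding with scintillation detection; specific binding is total minus binding under excess unlabelled ligand. Reported as % of control specific binding or % inhibition; IC50 from Hill-equation non-linear regression of competition curves, and Ki via Cheng-Prusoff using radioligand concentration and Scatchard-derived KD.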

Experiment [5] addresses dopaminergic receptors D2 (Homo sapiens, UniProt P14416). The experiment in a line: Radioligand binding assay, dopaminergic D2 receptors. As to conditions: binding assay, test compound 1×10^−6 M. In short, it runs like this:
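Competition binding with scintillation counting of bound radioligand; specific binding taken as total minus non-specific binding measured with excess unlabelled ligand. IC50 obtained by Hill-equation non-linear regression of replicate-mean curves, then converted to Ki via Cheng–Prusoff using radioligand concentration and Scatchard-derived KD.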

Experiment [6] deals with T4, 5-HT6 receptor (Homo sapiens, UniProt P50406).
T4 construct: purchased PerkinElmer
T4 sequence (P50406 whole entry): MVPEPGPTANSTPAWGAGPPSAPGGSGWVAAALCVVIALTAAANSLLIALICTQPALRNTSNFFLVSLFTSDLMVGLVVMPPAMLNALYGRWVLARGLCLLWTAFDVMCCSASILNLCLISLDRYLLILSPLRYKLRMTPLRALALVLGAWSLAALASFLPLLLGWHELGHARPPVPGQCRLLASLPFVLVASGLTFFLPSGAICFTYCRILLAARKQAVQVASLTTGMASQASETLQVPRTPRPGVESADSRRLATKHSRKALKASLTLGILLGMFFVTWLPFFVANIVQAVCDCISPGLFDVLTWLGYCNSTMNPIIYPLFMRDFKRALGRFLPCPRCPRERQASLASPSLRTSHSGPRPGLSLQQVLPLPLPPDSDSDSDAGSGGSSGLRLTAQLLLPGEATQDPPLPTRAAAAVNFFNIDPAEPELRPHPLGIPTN
Kind of experiment: Radioligand binding assay, serotoninergic 5-HT6 receptors.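 Further: test compound at 1 µM.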 Particulars: binding assay result in %, Table 5a. In short, it runs like this: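 Values are Ki from Cheng–Prusoff, taking IC50 from Hill nonlinear regression of competition curves and KD from a Scatchard plot. Specific binding was total minus binding with excess unlabelled ligand. Radioligand displacement was detected by scintillation counting, and data were also reported as percent of control specific binding.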

Experiment [7] deals with α1 adrenergic receptors (rat cerebral cortex). The experiment in a line: Radioligand binding assay, adrenergic α1 receptors. Particulars: test compound 1×10^−6 M. From the text: The specific ligand binding to the receptors is defined as the difference between the total binding and the non-specific binding determined in the presence of the excess of unlabelled ligand.
The results are expressed as a percent of control specific binding ((measured specific binding/control specific binding)×100) and as a percent inhibition of control specific binding (100−((measured specific binding/control specific binding)×100)) obtained in the presence of the test compounds. The specific ligand binding to the receptors is defined as the difference between the total binding and the nonspecific binding determined in the presence of an excess of unlabelled ligand. Scintillation counting was the method of detection of ligand binding. The IC50 values (concentration causing a half-maximal inhibition of control specific binding) were determined by non-linear regression analysis of the competition curves generated with mean replicate values using Hill equation curve fitting (Y=D+[(A−D)/(1+(C/C50)nH)], where Y=specific binding, D=minimum specific binding, A=maximum specific binding, C=compound concentration, C50=IC50, and nH=slope factor). […] The inhibition constants (Ki) were calculated using the Cheng Prusoff equation (Ki=IC50/(1+(L/KD)), where L=concentration of radioligand in the assay, and KD=affinity of the radioligand for the receptor). A scatchard plot was used to determine the Kd.

The target of experiment [8] is T5, 5-HT1A receptor (rat hippocampus) (Rattus norvegicus, UniProt P19327).
T5 construct: hippocampus; from tissue; host or cells: rat hippocampus
T5 sequence (P19327 1-422): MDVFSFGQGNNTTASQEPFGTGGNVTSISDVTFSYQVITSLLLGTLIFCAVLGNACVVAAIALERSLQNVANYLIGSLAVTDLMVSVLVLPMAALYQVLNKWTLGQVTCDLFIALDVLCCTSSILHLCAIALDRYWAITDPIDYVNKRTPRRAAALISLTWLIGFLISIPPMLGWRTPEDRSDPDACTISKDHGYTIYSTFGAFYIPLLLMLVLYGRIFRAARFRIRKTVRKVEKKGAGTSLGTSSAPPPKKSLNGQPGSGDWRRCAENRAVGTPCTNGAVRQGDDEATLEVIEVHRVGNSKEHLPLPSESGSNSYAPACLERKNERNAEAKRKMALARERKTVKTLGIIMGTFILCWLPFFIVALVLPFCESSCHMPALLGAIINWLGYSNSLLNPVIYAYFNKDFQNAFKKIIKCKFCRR
Kind of experiment: Radioligand binding assay, serotoninergic 5-HT1A receptors.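 Further: test compound at 1 µM.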 Particulars: binding assay result in %, Table 5a.

What is called inhibition is the change of the read-out against control, counted positive when it falls.

T2 sequence (P34969 whole entry): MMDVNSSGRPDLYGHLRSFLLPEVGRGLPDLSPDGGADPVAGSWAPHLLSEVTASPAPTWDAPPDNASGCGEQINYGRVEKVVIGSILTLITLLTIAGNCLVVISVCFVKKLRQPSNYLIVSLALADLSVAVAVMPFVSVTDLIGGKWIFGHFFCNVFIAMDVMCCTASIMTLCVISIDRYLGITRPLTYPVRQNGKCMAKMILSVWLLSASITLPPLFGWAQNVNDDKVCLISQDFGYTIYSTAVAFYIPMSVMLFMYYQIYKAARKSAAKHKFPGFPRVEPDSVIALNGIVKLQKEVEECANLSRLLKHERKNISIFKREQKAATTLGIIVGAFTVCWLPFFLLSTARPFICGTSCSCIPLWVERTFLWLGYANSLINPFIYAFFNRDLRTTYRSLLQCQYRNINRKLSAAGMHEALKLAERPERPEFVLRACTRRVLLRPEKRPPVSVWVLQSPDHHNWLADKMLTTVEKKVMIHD
Sequence of dopaminergic receptors D2 (P14416 whole entry): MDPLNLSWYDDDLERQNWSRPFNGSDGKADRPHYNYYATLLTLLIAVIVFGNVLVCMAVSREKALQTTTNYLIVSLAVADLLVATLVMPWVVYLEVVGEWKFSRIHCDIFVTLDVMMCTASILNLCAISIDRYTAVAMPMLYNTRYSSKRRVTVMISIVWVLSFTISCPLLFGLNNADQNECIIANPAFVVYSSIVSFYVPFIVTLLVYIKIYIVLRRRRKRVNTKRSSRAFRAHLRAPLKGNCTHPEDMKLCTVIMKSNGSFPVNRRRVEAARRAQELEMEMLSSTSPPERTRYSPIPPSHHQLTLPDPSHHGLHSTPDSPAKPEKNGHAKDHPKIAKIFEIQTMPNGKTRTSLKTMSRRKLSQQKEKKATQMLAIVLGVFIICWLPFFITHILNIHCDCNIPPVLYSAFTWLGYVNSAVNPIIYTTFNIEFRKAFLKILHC

On to “N-[1-[3-(6-Fluoro-1,2-benzoxazol-3-yl)propyl]pyrrolidin-3-yl]-1,3-benzothiazole-4-sulphonamide [Compound 31]”, for which the “D3 [%]” value in experiment [1] turned out to be 27%. Also, the “5-HT2A [%]” value in experiment [2] turned out to be 84%. Further, in experiment [3], the “5-HT7 [%]” value stood at 89%. In experiment [4], the “SERT [%]” value turned out to be 36%. Besides, the “D2 [%]” value in experiment [5] came out at 87%. Moreover, the “5-HT6 [%]” value in experiment [6] is given as 76%. For the same compound, in experiment [7], the “α1 [%]” value stood at 100%. Further, the “5-HT1A [%]” value in experiment [8] amounted to 58%.
For the compound `O=S(=O)(NCC1CN(CCOc2cccc3ccccc23)C1)c1ccc2cc(Cl)ccc2c1` [Compound 165, 6-Chloro-N-[[1-[2-(1-naphthyloxy)ethyl]azetidin-3-yl]methyl]naphthalene-2-sulphonamide], the inhibition at 1 µM in experiment [1] is 100%; in experiment [2] it was 99%; in experiment [3] it was 105%; in experiment [4], 111%; in experiment [5] it was 66%; in experiment [6], 97%. Further, in experiment [8], the inhibition at 1 µM was 87%. Moreover, in experiment [7], the “α1 [%]” value came out at 15%.
For `N#Cc1ccc(S(=O)(=O)NC2CCN(CCCc3noc4cc(F)ccc34)C2)cc1` (stereo not drawn) [Compound 210, 4-Cyano-N-[1-[3-(6-fluoro-1,2-benzoxazol-3-yl)propyl]pyrrolidin-3-yl]benzenesulphonamide], the inhibition at 1 µM in experiment [1] stood at 27%; in experiment [2], 80%; in experiment [3] it was 80%; in experiment [4] it was 35%; in experiment [5], 64%; in experiment [6], 68%. Also, the inhibition at 1 µM in experiment [8] is 8%. Moreover, in experiment [7], the “α1 [%]” value was 94%.
Turning to `O=S(=O)(NCC1CCN(CCOc2cccc3c2OCCO3)C1)c1ccc(Cl)cc1` (stereo not drawn) [Compound 289, 4-Chloro-N-[[1-[2-(2,3-dihydro-1,4-benzodioxin-5-yloxy)ethyl]pyrrolidin-3-yl]methyl]benzenesulphonamide], the inhibition at 1 µM in experiment [1] is 41%; in experiment [2], 61%; in experiment [3] it was 81%; in experiment [4], 53%; in experiment [5] it was -19%; in experiment [6], -1%. Also, the inhibition at 1 µM in experiment [8] was 99%. The “α1 [%]” value in experiment [7] was 46%.
On to `O=S(=O)(NC1CN(CCOc2cccc3c2OCCO3)C1)c1ccc(F)cc1` [Compound 90, N-[1-[2-(2,3-Dihydro-1,4-benzodioxan-8-yloxy)ethyl]azetidin-3-yl]-4-fluoro-benzenesulphonamide], for which the “D3 [%]” value in experiment [1] is on record as −7%. The “5-HT2A [%]” value in experiment [2] came out at 49%. Further, the “5-HT7 [%]” value in experiment [3] was determined as 92%. Further, the “SERT [%]” value in experiment [4] was determined as 18%. The “D2 [%]” value in experiment [5] came out at 5%. Besides, the “5-HT6 [%]” value in experiment [6] is given as −16%. The “α1 [%]” value in experiment [7] is recorded as −25%. Also, the “5-HT1A [%]” value in experiment [8] is 82%.
As to “3,4-Dichloro-N-[1-[3-(6-fluoro-1,2-benzoxazol-3-yl)propyl]pyrrolidin-3-yl]benzenesulphonamide [Compound 211]”, in experiment [1], the “D3 [%]” value is given as 63%. In addition, the “5-HT2A [%]” value in experiment [2] stood at 100%. Moreover, in experiment [3], the “5-HT7 [%]” value was found to be 107%. The “SERT [%]” value in experiment [4] came out at 4%. Further, the “D2 [%]” value in experiment [5] is reported as 93%. The “5-HT6 [%]” value in experiment [6] stood at 92%. Besides, the “α1 [%]” value in experiment [7] worked out at 90%. Moreover, the “5-HT1A [%]” value in experiment [8] is on record as 32%.
Turning to `O=S(=O)(NCC1CCN(CCOc2cccc3ccccc23)C1)c1cccc(O)c1` (stereo not drawn) [Compound 123, 3-Hydroxy-N-[[1-[2-(1-naphthyloxy)ethyl]pyrrolidin-3-yl]methyl]-benzenesulphonamide], the inhibition at 1 µM in experiment [1] came to 86%; in experiment [2] it was 64%; in experiment [3], 88%; in experiment [4] it was 83%; in experiment [5] it was 38%; in experiment [6], 72%. For the same compound, the inhibition at 1 µM in experiment [8] amounted to 99%. Further, the “α1 [%]” value in experiment [7] is 43%.
For the compound `O=S(=O)(NC1CCN(CCCc2c[nH]c3ccc(Cl)cc23)C1)c1ccccc1` (stereo not drawn) [Compound 81, N-[1-[3-(5-Chloro-1H-indol-3-yl)propyl]pyrrolidin-3-yl]benzene-sulphonamide], the inhibition at 1 µM in experiment [1] was 86%; in experiment [2], 75%; in experiment [3], 84%; in experiment [4], 78%; in experiment [5] it was 60%; in experiment [6], 75%. Besides, the inhibition at 1 µM in experiment [8] is 109%. Besides, the “α1 [%]” value in experiment [7] is 36%.
In the case of `Cc1cccc(S(=O)(=O)NC2CCN(CCOc3cccc4c3OCCO4)CC2)c1` [Compound 118, N-[1-[2-(2,3-Dihydro-1,4-benzodioxan-8-yloxy)ethyl]-4-piperidine]-3-methyl-benzenesulphonamide], the “D3 [%]” value in experiment [1] was determined as 20%. For the same compound, in experiment [2], the “5-HT2A [%]” value came out at 83%. Moreover, the “5-HT7 [%]” value in experiment [3] was found to be 99%. Moreover, the “SERT [%]” value in experiment [4] turned out to be 41%. Besides, the “D2 [%]” value in experiment [5] was found to be 32%. In experiment [6], the “5-HT6 [%]” value was 51%. Moreover, the “α1 [%]” value in experiment [7] was found to be 72%. In experiment [8], the “5-HT1A [%]” value was 85%.
As to `O=S(=O)(NCC1CN(CCOc2cccc3ccccc23)C1)c1csc2ccccc12` [Compound 171, N-[[1-[2-(1-Naphthyloxy)ethyl]azetidin-3-yl]methyl]benzothiophene-3-sulphonamide], the inhibition at 1 µM in experiment [1] was 99%; in experiment [2], 101%; in experiment [3], 94%; in experiment [4] it was 44%; in experiment [5], 72%; in experiment [6], 96%. Also, in experiment [8], the inhibition at 1 µM came to 92%. Also, in experiment [7], the “α1 [%]” value is 50%.
As to `O=S(=O)(NC1CCN(CCCc2noc3cc(F)ccc23)C1)c1ccc(-c2ccccc2)cc1` (stereo not drawn) [Compound 195, N-[1-[3-(6-Fluoro-1,2-benzoxazol-3-yl)propyl]pyrrolidin-3-yl]-4-phenyl-benzenesulphonamide], the inhibition at 1 µM amounted to 82% in experiment [1]; 101% in experiment [2]; 86% in experiment [3]; 7% in experiment [4]; 93% in experiment [5]; 86% in experiment [6]. Also, in experiment [8], the inhibition at 1 µM amounted to 47%. Besides, in experiment [7], the “α1 [%]” value was found to be 79%.
With `O=S(=O)(NC1CCN(CCCc2noc3cc(F)ccc23)C1)c1cnc2ccccn12` (stereo not drawn) [Compound 30, N-[1-[3-(6-Fluoro-1,2-benzoxazol-3-yl)propyl]pyrrolidin-3-yl]imidazo-[1,2-a]pyridine-3-sulphonamide], the inhibition at 1 µM is -2% in experiment [1]; 95% in experiment [2]; 82% in experiment [3]; 36% in experiment [4]; 62% in experiment [5]; 77% in experiment [6]. In addition, in experiment [8], the inhibition at 1 µM amounted to 5%. In addition, the “α1 [%]” value in experiment [7] is on record as 84%.
